Assay results from PubChem BioAssay AID1963838 (Molecular Pharmacology Branch, DTP, NCI, 2024).

Tested on: 855422-203-R-J1-PDC complex spheroid viability
Assay: Anticancer human tumor 855422-203-R-J1-PDC patient-derived bladder carcinoma cell line growth inhibition [POLQ]
Conditions: for IC50: curve of first compound; for viability, T/C: stronger effect = lower value
Procedure, shortened: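 Three-cell-type spheroids modelling solid tumor plus stroma served as the readout system; POL inhibitors were tested individually and in combination, concentration ranges set by clinical Cmax where known.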

[1] = second compound 0.0316 µM, first compound 0.0316 µM
[2] = second compound 0.0316 µM, first compound 0.1 µM
[3] = second compound 0.0316 µM, first compound 0.316 µM
[4] = second compound 0.0316 µM, first compound 1 µM
[5] = second compound 0.1 µM, first compound 0.0316 µM
[6] = second compound 0.1 µM, first compound 0.1 µM
[7] = second compound 0.1 µM, first compound 0.316 µM
[8] = second compound 0.1 µM, first compound 1 µM
[9] = second compound 0.316 µM, first compound 0.0316 µM
[10] = second compound 0.316 µM, first compound 0.1 µM
[11] = second compound 0.316 µM, first compound 0.316 µM
[12] = second compound 0.316 µM, first compound 1 µM
[13] = second compound 1 µM, first compound 0.0316 µM
[14] = second compound 1 µM, first compound 0.1 µM
[15] = second compound 1 µM, first compound 0.316 µM
[16] = second compound 1 µM, first compound 1 µM
[17] = second compound 3.16 µM, first compound 0.0316 µM
[18] = second compound 3.16 µM, first compound 0.1 µM
[19] = second compound 3.16 µM, first compound 0.316 µM
[20] = second compound 3.16 µM, first compound 1 µM
[21] = second compound 10 µM, first compound 0.0316 µM
[22] = second compound 10 µM, first compound 0.1 µM
[23] = second compound 10 µM, first compound 0.316 µM
[24] = second compound 10 µM, first compound 1 µM
[25] = second compound 0.0316 µM, first compound 0.00316 µM
[26] = second compound 0.0316 µM, first compound 0.01 µM
[27] = second compound 0.1 µM, first compound 0.00316 µM
[28] = second compound 0.1 µM, first compound 0.01 µM
[29] = second compound 0.316 µM, first compound 0.00316 µM
[30] = second compound 0.316 µM, first compound 0.01 µM
[31] = second compound 1 µM, first compound 0.00316 µM
[32] = second compound 1 µM, first compound 0.01 µM
[33] = second compound 3.16 µM, first compound 0.00316 µM
[34] = second compound 3.16 µM, first compound 0.01 µM
[35] = second compound 10 µM, first compound 0.00316 µM
[36] = second compound 10 µM, first compound 0.01 µM
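Further: spheroids exposed to compounds for seven days before readout.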

CNCc1ccc(-c2[nH]c3cc(F)cc4c3c2CCNC4=O)cc1 + Nc1ccc(C#CCN(C(=O)Cc2ncc(C(F)(F)F)cc2C(F)(F)F)c2ccc(F)cc2)nn1
IC50 (second compound 0.0316 µM): > 10000 nM | IC50 (second compound 0.1 µM): > 10000 nM | IC50 (second compound 0.316 µM): > 10000 nM | IC50 (second compound 1 µM): > 10000 nM | IC50 (second compound 3.16 µM): > 10000 nM | IC50 (second compound 10 µM): > 10000 nM | viability, T/C [1]: 94.5% | viability, T/C [2]: 131% | viability, T/C [3]: 102% | viability, T/C [4]: 102% | viability, T/C (second compound 0.0316 µM, first compound 3.16 µM): 106% | viability, T/C (second compound 0.0316 µM, first compound 10 µM): 116% | viability, T/C [5]: 97.8% | viability, T/C [6]: 154% | viability, T/C [7]: 112% | viability, T/C [8]: 86% | viability, T/C (second compound 0.1 µM, first compound 3.16 µM): 99.2% | viability, T/C (second compound 0.1 µM, first compound 10 µM): 115% | viability, T/C [9]: 100% | viability, T/C [10]: 121% | viability, T/C [11]: 108% | viability, T/C [12]: 91.4% | viability, T/C (second compound 0.316 µM, first compound 3.16 µM): 100% | viability, T/C (second compound 0.316 µM, first compound 10 µM): 119% | viability, T/C [13]: 90.9% | viability, T/C [14]: 115% | viability, T/C [15]: 91.4% | viability, T/C [16]: 104% | viability, T/C (second compound 1 µM, first compound 3.16 µM): 118% | viability, T/C (second compound 1 µM, first compound 10 µM): 112% | viability, T/C [17]: 94.9% | viability, T/C [18]: 119% | viability, T/C [19]: 101% | viability, T/C [20]: 97.3% | viability, T/C (second compound 3.16 µM, first compound 3.16 µM): 101% | viability, T/C (second compound 3.16 µM, first compound 10 µM): 104% | viability, T/C [21]: 98.3% | viability, T/C [22]: 102% | viability, T/C [23]: 107% | viability, T/C [24]: 100% | viability, T/C (second compound 10 µM, first compound 3.16 µM): 110% | viability, T/C (second compound 10 µM, first compound 10 µM): 97.8%

COc1cccc(OCCCN)c1-c1cc(Nc2cnc(C#N)cn2)n[nH]1 + Nc1ccc(C#CCN(C(=O)Cc2ncc(C(F)(F)F)cc2C(F)(F)F)c2ccc(F)cc2)nn1
IC50 (second compound 0.0316 µM): 27.7 nM | IC50 (second compound 0.1 µM): 31.9 nM | IC50 (second compound 0.316 µM): 31.5 nM | IC50 (second compound 1 µM): 25.2 nM | IC50 (second compound 3.16 µM): 24.1 nM | IC50 (second compound 10 µM): 24 nM | viability, T/C [25]: 111% | viability, T/C [26]: 197% | viability, T/C [1]: 36.6% | viability, T/C [2]: 11.9% | viability, T/C [3]: 7.2% | viability, T/C [4]: 6.13% | viability, T/C [27]: 106% | viability, T/C [28]: 196% | viability, T/C [5]: 50.3% | viability, T/C [6]: 10.7% | viability, T/C [7]: 6.14% | viability, T/C [8]: 5.3% | viability, T/C [29]: 113% | viability, T/C [30]: 176% | viability, T/C [9]: 49.8% | viability, T/C [10]: 11.1% | viability, T/C [11]: 7.07% | viability, T/C [12]: 6.94% | viability, T/C [31]: 105% | viability, T/C [32]: 148% | viability, T/C [13]: 31.3% | viability, T/C [14]: 9.99% | viability, T/C [15]: 7.86% | viability, T/C [16]: 7.5% | viability, T/C [33]: 107% | viability, T/C [34]: 178% | viability, T/C [17]: 21.6% | viability, T/C [18]: 15.9% | viability, T/C [19]: 7.71% | viability, T/C [20]: 6.25% | viability, T/C [35]: 100% | viability, T/C [36]: 161% | viability, T/C [21]: 24.6% | viability, T/C [22]: 8% | viability, T/C [23]: 9.72% | viability, T/C [24]: 7.4%

Cn1ncnc1[C@H]1c2n[nH]c(=O)c3cc(F)cc(c23)N[C@@H]1c1ccc(F)cc1 + Nc1ccc(C#CCN(C(=O)Cc2ncc(C(F)(F)F)cc2C(F)(F)F)c2ccc(F)cc2)nn1
IC50 (second compound 0.0316 µM): > 100 nM | IC50 (second compound 0.1 µM): > 100 nM | IC50 (second compound 0.316 µM): > 100 nM | IC50 (second compound 1 µM): > 100 nM | IC50 (second compound 3.16 µM): > 100 nM | IC50 (second compound 10 µM): > 100 nM | viability, T/C (second compound 0.0316 µM, first compound 0.000316 µM): 96.1% | viability, T/C (second compound 0.0316 µM, first compound 0.001 µM): 125% | viability, T/C [25]: 96% | viability, T/C [26]: 82% | viability, T/C [1]: 110% | viability, T/C [2]: 132% | viability, T/C (second compound 0.1 µM, first compound 0.000316 µM): 88.6% | viability, T/C (second compound 0.1 µM, first compound 0.001 µM): 157% | viability, T/C [27]: 92% | viability, T/C [28]: 104% | viability, T/C [5]: 119% | viability, T/C [6]: 147% | viability, T/C (second compound 0.316 µM, first compound 0.000316 µM): 91.7% | viability, T/C (second compound 0.316 µM, first compound 0.001 µM): 154% | viability, T/C [29]: 91.4% | viability, T/C [30]: 106% | viability, T/C [9]: 96.2% | viability, T/C [10]: 181% | viability, T/C (second compound 1 µM, first compound 0.000316 µM): 98.8% | viability, T/C (second compound 1 µM, first compound 0.001 µM): 154% | viability, T/C [31]: 96% | viability, T/C [32]: 93.2% | viability, T/C [13]: 115% | viability, T/C [14]: 153% | viability, T/C (second compound 3.16 µM, first compound 0.000316 µM): 92% | viability, T/C (second compound 3.16 µM, first compound 0.001 µM): 135% | viability, T/C [33]: 95.7% | viability, T/C [34]: 106% | viability, T/C [17]: 134% | viability, T/C [18]: 122% | viability, T/C (second compound 10 µM, first compound 0.000316 µM): 93.2% | viability, T/C (second compound 10 µM, first compound 0.001 µM): 110% | viability, T/C [35]: 88.3% | viability, T/C [36]: 100% | viability, T/C [21]: 102% | viability, T/C [22]: 132%
